Test [1] has as its system Chang X31 cells. The format is cell-based, human.
Test [2] deals with Chang V9 cells. The experiment in a line: Induction of apoptosis by sulfasalazine in the control liver cell line not expressing HBx protein. In kind it is cell-based, human. The note with it: for extent of apoptosis: 120 h.
The test system of test [3] is Chang X31 cells. In kind it is cell-based, human. The note with it: for extent of apoptosis: 120 h.
Test [4] concerns Chang V9 cells. Put plainly: DAPI staining, morphology of apoptosis. In kind it is cell-based, human. The note with it: 1.3 mM sulfasalazine, 72 hours. On the procedure: (§1) Chang X 31 and Chang V9 cells were split on 6-well plates, and […], treated with 1.3 mM sulfasalazine.
(§2) 72 hours after the sulfasalzine treatment, DAPI staining was performed to observe apoptosis. The cells were directly fixed in the cold solution consisting of 1% […] and 0.2% glutaraldehyde for 5 min, washed twice with PBS and then stained with 1 mg/ml of DAPI solution (Sigma, USA). The cells were incubated for 5 hours in dark.
(§3) The stained cells were examined using a fluorescent microscopy.

Test [5] concerns Chang X31 cells. The experiment in a line: DAPI staining, morphology of apoptosis. In kind it is cell-based, human. The note with it: 1.3 mM sulfasalazine, 72 hours. On the procedure: as §1, §2, §3
Another test concerns NF-κB. Conditions: through inhibiting the phosphorylation of IκB; Wahl et al. 1998; cited from earlier work.

Like-named read-outs stand apart in the source and are kept apart here.

As to `N[C@@H](CCC(=O)N[C@@H](CS)C(=O)NCC(=O)O)C(=O)O` [GSH, glutathione], in the test with Chang X31 cells [1], the “apoptosis” value is listed as “only partial apoptosis” and the “inhibition of the apoptosis of the liver cell line (conclusion)” value is listed as “effective in inhibiting the apoptosis”.

In the case of `CC(=O)N[C@@H](CS)C(=O)O` [NAC, N-acetyl-L-cystein], in the test on Chang X31 cells [1] (2 mM GSH (group I), 1 mM NAC (group II) before 1.3 mM sulfasalazine, 120 h, crystal violet), the “apoptosis” value is “only partial apoptosis”. Besides, the “inhibition of the apoptosis of the liver cell line (conclusion)” value in the test on Chang X31 cells [1] (2 mM GSH, 1 mM NAC, 0.5 mM STS, […]) is “effective in inhibiting the apoptosis”.

In the case of `CN[C@@H]1C[C@H]2O[C@@](C)([C@@H]1OC)n1c3ccccc3c3c4c(c5c6ccccc6n2c5c31)C(=O)NC4` [STS, staurosporine], the apoptosis in the test with Chang X31 cells [1] (0.5 mM STS (group III) before 1.3 mM sulfasalazine, 120 h, crystal violet) worked out at 100%.

With `O=C(O)c1cc(/N=N/c2ccc(S(=O)(=O)Nc3ccccn3)cc2)ccc1O` [sulfasalazine], the survival rate entry is given as “at least 50%” with Chang V9 cells [2] (1.0 mM sulfasalazine, re-treated at 48 h, read 72 h after re-treatment (120 h)) and “at least 50%” with Chang X31 cells [3] (1.0 mM sulfasalazine, re-treated at 48 h, read 72 h after re-treatment (120 h), […]). For the same compound, the extent of apoptosis in the test with Chang V9 cells [2] (1.3 mM sulfasalazine) is 10%; in the test with Chang V9 cells [2] (at least 1.5 mM sulfasalazine), “at least 20%”; in the test with Chang X31 cells [3] (1.3 mM sulfasalazine, […]), 100%; in the test on Chang X31 cells [3] (at least 1.5 mM sulfasalazine, […]), 100%. In addition, in the test on Chang X31 cells [3] (complete (100%) apoptosis within 120 hours), the “concentration inducing complete apoptosis of Chang X31 cells” value is “at least 1.3 mM”. Also, the “typical features of apoptosis (nuclear condensation, shrinkage, fragmentation)” value with Chang V9 cells [4] was “not in Chang V9”; in the test with Chang X31 cells [5], “observed in only Chang X 31”. The “effect on TNF-α-induced nuclear translocation of NF-κB” value in the test with NF-κB is given as “prevents TNF-α-induced nuclear translocation of NF-κB”.
